Source: patent US5073540A, “Composite binding site drugs” (Receptron, priority 1989, dated 1991)
Where a SMILES comes first, the peptide text is derived from it.

What was measured:
[1] = Peptide depletion (degradation or adsorption) during the experimental period, by HPLC and 125I-label; assay type: physicochemical; settings: HPLC and 125I-labeled peptide; concentrations above 0.1 μM
[2] = target: T1, purified human IR (Homo sapiens, UniProt P06213); experiment: IR autophosphorylation (tyrosine kinase activity of purified insulin receptor); assay type: biochemical; settings: for EC50: insulin-induced, 95% confidence intervals printed: K^k 2.2-7.2 μM, D^k 0.3-2.2 μM; for inhibition of basal activity of IR: no insulin added
T1 construct: from tissue; host or cells: human placenta
T1 sequence (P06213 28-758 limits assumed): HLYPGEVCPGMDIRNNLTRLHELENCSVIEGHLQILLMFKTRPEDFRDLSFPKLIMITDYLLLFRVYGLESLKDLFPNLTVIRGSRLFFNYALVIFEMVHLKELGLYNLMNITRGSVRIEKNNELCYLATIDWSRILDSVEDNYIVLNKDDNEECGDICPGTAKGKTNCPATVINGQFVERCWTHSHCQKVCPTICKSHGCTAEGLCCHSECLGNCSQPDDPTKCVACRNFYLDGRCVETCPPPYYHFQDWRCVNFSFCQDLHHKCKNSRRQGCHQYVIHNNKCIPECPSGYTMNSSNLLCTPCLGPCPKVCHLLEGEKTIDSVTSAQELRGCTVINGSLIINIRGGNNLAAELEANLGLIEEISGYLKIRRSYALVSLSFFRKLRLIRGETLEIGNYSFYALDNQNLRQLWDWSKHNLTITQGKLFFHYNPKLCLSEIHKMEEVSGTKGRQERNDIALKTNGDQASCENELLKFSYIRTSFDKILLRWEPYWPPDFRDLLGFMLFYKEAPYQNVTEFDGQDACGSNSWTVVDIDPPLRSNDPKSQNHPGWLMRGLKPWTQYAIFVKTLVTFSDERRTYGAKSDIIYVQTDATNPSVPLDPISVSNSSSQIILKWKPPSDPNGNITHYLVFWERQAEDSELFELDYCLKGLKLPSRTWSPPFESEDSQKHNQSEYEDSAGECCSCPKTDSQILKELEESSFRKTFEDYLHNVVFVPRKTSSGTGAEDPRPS
T1 sequence (P06213 763-1382 limits assumed): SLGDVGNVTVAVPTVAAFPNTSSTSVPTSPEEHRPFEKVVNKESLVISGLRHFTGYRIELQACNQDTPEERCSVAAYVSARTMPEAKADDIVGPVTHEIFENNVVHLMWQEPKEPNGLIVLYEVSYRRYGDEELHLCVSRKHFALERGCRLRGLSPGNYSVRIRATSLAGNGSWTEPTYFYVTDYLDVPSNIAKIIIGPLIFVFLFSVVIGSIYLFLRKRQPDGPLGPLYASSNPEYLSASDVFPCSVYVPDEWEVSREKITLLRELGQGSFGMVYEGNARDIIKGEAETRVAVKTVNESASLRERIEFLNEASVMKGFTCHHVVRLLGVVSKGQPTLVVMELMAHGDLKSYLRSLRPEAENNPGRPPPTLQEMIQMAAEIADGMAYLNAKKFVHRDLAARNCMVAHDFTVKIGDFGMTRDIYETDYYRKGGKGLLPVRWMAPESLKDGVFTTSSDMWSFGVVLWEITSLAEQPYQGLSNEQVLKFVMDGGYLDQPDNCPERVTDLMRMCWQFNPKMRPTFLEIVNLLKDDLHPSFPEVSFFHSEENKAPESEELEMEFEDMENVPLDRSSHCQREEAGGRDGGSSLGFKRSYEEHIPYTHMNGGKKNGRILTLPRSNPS
Description: When peptide was used, it was added in 5.0 μl, the volume adjusted to 20 μl by adding buffer, and the mixture incubated (1 hr, 4° C.). After incubation, 10 μl of a solution containing 2.5 μCi ^32 P-labeled ATP (3,000 Ci/mmol; γ-labeled; Amersham), 50 mM HEPES, pH 7.6, 150 mM NaCl, 0.1% Triton X-100, 37.5 μM unlabeled ATP, 15 mM MgCl2, and 6 MnCl2 was added to a final volume of 30 μl. The mixture was then incubated for 30 min. at 24° C.
After incubation, 15 μl sample buffer was added, and the sample was boiled for 5 min., and run on 10% SDS-PAGE overnight. The gel was dried, and autoradiograms processed with an exposure time of 5-10 hr. For quantitative estimates the β-subunit band of IR and the IRKD bands were cut out and counted dry (Cerenkov) in a scintillation counter.

| Compound | depletion (degradation or adsorption) during the experimental period [1] | EC50 [2] | inhibition of basal activity of IR [2] |
| --- | --- | --- | --- |
| dynorphin A | No significant depletion | – | – |
| CC[C@H](C)[C@H](NC(=O)[C@H](CCC(N)=O)NC(=O)[C@@H](NC(=O)[C@H](CC(N)=O)NC(=O)[C@H](CCCNC(=N)N)NC(=O)[C@@H](N)CCC(=O)O)[C@@H](C)O)C(=O)N[C@@H](C)C(=O)N[C@@H](CCCCN)C(=O)NCC(=O)N[C@@H](CC(N)=O)C(=O)N[C@@H](CCC(=O)O)C(=O)N[C@@H](CCC(N)=O)C(=O)N[C@H](C(=O)N[C@@H](Cc1ccccc1)C(=O)N[C@@H](CCCNC(=N)N)C(=O)N[C@H](C(=O)N[C@@H](CC(N)=O)C(=O)N[C@@H](CC(C)C)C(=O)N[C@@H](CCCNC(=N)N)C(=O)N[C@H](C(=O)N[C@@H](C)C(=O)N[C@@H](CC(C)C)C(=O)N[C@@H](CCCNC(=N)N)C(=O)N[C@@H](Cc1ccc(O)cc1)C(=O)N[C@@H](Cc1ccc(O)cc1)C(=O)O)[C@@H](C)O)C(C)C)[C@@H](C)CC [K^k-(61-85)] (H-ERNTQIAKGNEQIFRVNLRTALRYY-OH) | – | 4000 nM | 24-40% |
| CC[C@H](C)[C@H](NC(=O)[C@H](CCC(N)=O)NC(=O)[C@@H](NC(=O)[C@H](CCC(=O)O)NC(=O)[C@H](CCCNC(=N)N)NC(=O)[C@@H](N)CCC(=O)O)[C@@H](C)O)C(=O)N[C@@H](C)C(=O)N[C@@H](CCCCN)C(=O)NCC(=O)N[C@@H](CC(N)=O)C(=O)N[C@@H](CCC(=O)O)C(=O)N[C@@H](CCC(N)=O)C(=O)N[C@@H](CO)C(=O)N[C@@H](Cc1ccccc1)C(=O)N[C@@H](CCCNC(=N)N)C(=O)N[C@H](C(=O)N[C@@H](CC(=O)O)C(=O)N[C@@H](CC(C)C)C(=O)N[C@@H](CCCNC(=N)N)C(=O)N[C@H](C(=O)N[C@@H](CC(C)C)C(=O)N[C@@H](CC(C)C)C(=O)N[C@@H](CCCNC(=N)N)C(=O)N[C@@H](Cc1ccc(O)cc1)C(=O)N[C@@H](Cc1ccc(O)cc1)C(=O)O)[C@@H](C)O)C(C)C [D^k-(61-85), ERETQIAKGNEQSFRVDLRTLLRYY] (H-ERETQIAKGNEQSFRVDLRTLLRYY-OH) | – | 1200 nM | 24-40% |
